{"source": "patent US4921504A", "about": "“4-(N-ethyl-N-2-hydroxyethyl)-amino-1-(2 hydroxyethyl)-amino-2-nitrobenzene and compositions for dyeing hair containing the same” (Wella Aktiengesellschaft, priority 1984, dated 1990)", "key": {"LD50 (toxicity)": {"test": "LD50 (toxicity)", "details": "in vivo"}, "mouse-lymphoma": {"tested_on": "mouse-lymphoma", "test": "mouse-lymphoma-assay", "type": "cell-based"}, "[1]": {"test": "storage stability of dyes", "type": "physicochemical", "details": "in dye compositions"}, "solubility in water": {"test": "solubility in water", "type": "physicochemical", "source_text": "In view of the foregoing, it was most surprising to find the blue nitro dye (compound I), being an isomer of compound III and a homologue of compound VI, has sufficiently different characteristics which cannot be derived from known compounds III, IV, V or VI. The dye (I) in accordance with the present invention has a solubility of about 1.0% in water which facilitates the acquisition of dark shades considerably, particularly, in comparison with compound III. […] Rather, an oil is formed from which the dye can later be supplied during the dyeing process. The alternative of redissolving formed crystals would take too much time and, as a result, such crystals would not, again, be available during the dyeing process."}, "human-lymphocyte": {"tested_on": "human-lymphocyte", "test": "human-lymphocyte-test", "type": "cell-based"}, "light genuiness": {"test": "light genuiness", "type": "physicochemical", "details": "nitro dyes containing compound I"}, "Ames test": {"test": "Ames test", "type": "cell-based"}, "yeast cell": {"tested_on": "yeast cell", "test": "yeast cell-mutagenity test", "type": "cell-based", "source_text": "2. yeast cell-mutagenity test"}, "[2]": {"test": "general toxicological safety", "details": "compared with compounds II through VI"}, "[3]": {"details": "prior-art compound, cited from earlier work"}, "[4]": {"details": "prior-art compound; cited from earlier work"}, "[5]": {"details": "prior-art compound; doubts recently raised regarding safe use; cited from earlier work"}, "[6]": {"details": "in water without also having to dissolve intermediaries (III)"}}, "note": "Read-outs that look alike come from different tables or passages of the source."}
{"compound": "CCN(CCO)c1ccc(NCCO)c([N+](=O)[O-])c1", "note": "[Compound I, 4-(N-ethyl-N-2'-hydroxyethyl)-amino-1-(2\"-hydroxyethyl)-amino-2-nitrobenzene]", "values": [{"measurement": "LD50", "setting": "LD50 (toxicity)", "result": "~2000", "unit": "mg/kg"}, {"measurement": "mutagenicity in mouse-lymphoma-assay", "setting": "mouse-lymphoma", "result": "not mutagenic"}, {"measurement": "storage stability", "setting": "[1]", "result": "extraordinary"}, {"measurement": "skin compatibility", "setting": "skin compatibility", "result": "good skin compatibility"}, {"measurement": "behaviour when exceeding solubility", "setting": "solubility in water; exceeding solubility, an oil is formed", "result": "does not crystallize"}, {"measurement": "solubility", "setting": "solubility in water; in water", "result": "~10000", "unit": "µg/mL"}, {"measurement": "mutagenicity in human-lymphocyte-test", "setting": "human-lymphocyte", "result": "not mutagenic"}, {"measurement": "light genuiness", "setting": "light genuiness", "result": "very good"}, {"measurement": "mutagenicity in Ames test", "setting": "Ames test", "result": "not mutagenic"}, {"measurement": "mutagenicity in yeast cell-mutagenity test", "setting": "yeast cell", "result": "not mutagenic"}, {"measurement": "toxicological safety", "setting": "[2]", "result": "safe"}]}
{"compound": "CCNc1ccc(N(CCO)CCO)cc1[N+](=O)[O-]", "note": "[III]", "values": [{"measurement": "solubility in water", "setting": "[3]; [6]", "result": "below 0.15%"}]}
{"compound": "O=[N+]([O-])c1cc(N(CCO)CCO)ccc1NCCO", "note": "[IV]", "values": [{"measurement": "solubility in water", "setting": "[3]", "result": "high solubility"}]}
{"compound": "CN(CCO)c1ccc(NCCO)c([N+](=O)[O-])c1", "note": "[VI]", "values": [{"measurement": "mutagenic effect in Ames test", "setting": "[4]", "result": "mutagenic effect"}]}
{"compound": "CNc1ccc(N(CCO)CCO)cc1[N+](=O)[O-]", "note": "[V]", "values": [{"measurement": "solubility in water", "setting": "[3]; [6]", "result": "about 0.5%"}, {"measurement": "level of toxicity", "setting": "[5]", "result": "possibly unacceptable"}]}
